Earlier results, collected in patent US20020004046A1, “Combination therapy of respiratory diseases using antibodies” (priority 2000, published 2002).

What was measured:
[1] = compared with untreated patients

## NC(=O)c1ncn([C@@H]2O[C@H](CO)[C@@H](O)[C@H]2O)n1 [ribavirin]
[1]
  level of secondary infection following cessation of treatment: significantly higher
Given orally
  bioavailability: about 45%
In vivo, po
  time of peak concentrations in plasma: 1 to 2 h
